Data as given in patent US20090105270A1, “Kinase inhibition and anticancer therapy” (priority 2007, published 2009).

Key:
[1] = molecular target: T1, TSSK2(h) (Homo sapiens, UniProt Q96PF2); assay: Upstate kinase activity inhibition assay TSSK2(h); assay type: biochemical; details: 40 min; read-out: percentage of enzyme activity that remains
T1 construct: purchased Upstate (KinaseProfiler service)

[2] = molecular target: NEK2(h) (Homo sapiens, UniProt P51955); assay: Upstate kinase activity inhibition assay NEK2(h); details: 40 min, read-out: percentage of enzyme activity that remains
[3] = molecular target: FGFR3(h) (Homo sapiens, UniProt P22607); assay: Upstate kinase activity inhibition assay FGFR3(h); details: 40 min, read-out: percentage of enzyme activity that remains
[4] = molecular target: Snk(h) (Homo sapiens, UniProt Q9NYY3); assay: Upstate kinase activity inhibition assay Snk(h)
[5] = molecular target: EphA1(h) (Homo sapiens, UniProt P21709); assay: Upstate kinase activity inhibition assay EphA1(h); details: 40 min, read-out: percentage of enzyme activity that remains
[6] = molecular target: ARK5(h) (Homo sapiens, UniProt O60285); assay: Upstate kinase activity inhibition assay ARK5(h)
Sequence of ARK5(h) (O60285 whole entry): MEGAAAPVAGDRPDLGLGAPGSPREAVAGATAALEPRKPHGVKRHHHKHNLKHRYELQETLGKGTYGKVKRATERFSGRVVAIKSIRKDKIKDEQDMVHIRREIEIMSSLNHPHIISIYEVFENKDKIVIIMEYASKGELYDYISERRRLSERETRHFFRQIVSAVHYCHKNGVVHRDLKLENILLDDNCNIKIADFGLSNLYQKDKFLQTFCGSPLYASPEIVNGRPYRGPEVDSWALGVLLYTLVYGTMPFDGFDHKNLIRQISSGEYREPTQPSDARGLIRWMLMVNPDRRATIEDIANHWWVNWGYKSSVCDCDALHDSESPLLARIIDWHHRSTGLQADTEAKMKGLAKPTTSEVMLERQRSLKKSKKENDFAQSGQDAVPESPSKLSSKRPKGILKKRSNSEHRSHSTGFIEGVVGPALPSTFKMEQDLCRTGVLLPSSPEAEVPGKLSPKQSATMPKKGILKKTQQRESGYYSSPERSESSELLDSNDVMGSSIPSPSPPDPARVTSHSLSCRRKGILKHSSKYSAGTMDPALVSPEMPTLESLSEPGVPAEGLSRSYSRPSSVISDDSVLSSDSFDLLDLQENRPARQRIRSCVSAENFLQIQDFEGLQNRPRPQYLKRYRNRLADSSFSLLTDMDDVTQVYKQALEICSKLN

[7] = molecular target: T2, BrSK2(h) (Homo sapiens, UniProt Q8IWQ3); assay: Upstate kinase activity inhibition assay BrSK2(h); assay type: biochemical; details: 40 min; read-out: percentage of enzyme activity that remains
T2 construct: purchased Upstate (KinaseProfiler service)
T2 sequence (Q8IWQ3 whole entry): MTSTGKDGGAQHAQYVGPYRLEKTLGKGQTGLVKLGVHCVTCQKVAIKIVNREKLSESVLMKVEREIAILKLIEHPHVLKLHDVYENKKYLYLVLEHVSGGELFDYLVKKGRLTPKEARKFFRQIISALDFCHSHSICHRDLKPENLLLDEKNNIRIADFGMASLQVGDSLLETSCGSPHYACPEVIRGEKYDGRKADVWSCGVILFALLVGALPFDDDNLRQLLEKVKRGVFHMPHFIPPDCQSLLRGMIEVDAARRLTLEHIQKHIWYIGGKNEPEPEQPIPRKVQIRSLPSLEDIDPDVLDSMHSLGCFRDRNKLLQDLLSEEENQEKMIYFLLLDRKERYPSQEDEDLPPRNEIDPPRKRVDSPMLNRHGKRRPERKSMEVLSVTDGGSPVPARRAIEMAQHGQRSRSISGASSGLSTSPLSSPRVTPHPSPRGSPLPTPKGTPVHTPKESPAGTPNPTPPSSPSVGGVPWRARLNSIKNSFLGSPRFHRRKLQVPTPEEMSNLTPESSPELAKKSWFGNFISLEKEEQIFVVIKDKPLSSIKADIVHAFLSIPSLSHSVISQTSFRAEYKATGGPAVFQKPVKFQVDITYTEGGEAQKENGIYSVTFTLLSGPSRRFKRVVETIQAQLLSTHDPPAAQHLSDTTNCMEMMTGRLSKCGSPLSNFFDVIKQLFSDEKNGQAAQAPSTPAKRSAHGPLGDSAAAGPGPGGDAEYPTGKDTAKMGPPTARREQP

[8] = molecular target: T3, p70S6K(h) (Homo sapiens, UniProt P23443); assay: Upstate kinase activity inhibition assay p70S6K(h); assay type: biochemical; details: 40 min; read-out: percentage of enzyme activity that remains
T3 construct: purchased Upstate (KinaseProfiler service)

[9] = molecular target: T4, CDK2/cyclinE(h) (Homo sapiens, UniProt P24941); assay: Upstate kinase activity inhibition assay CDK2/cyclinE(h); assay type: biochemical; details: 4 μM Compound E
T4 construct: purchased Upstate (KinaseProfiler service)

[10] = molecular target: T5, PKCγ(h) (Homo sapiens, UniProt P05129); assay: Upstate kinase activity inhibition assay PKCγ(h); assay type: biochemical; details: 40 min; read-out: percentage of enzyme activity that remains
T5 construct: purchased Upstate (KinaseProfiler service)

[11] = molecular target: T6, PASK(h) (Homo sapiens, UniProt Q96RG2); assay: Upstate kinase activity inhibition assay PASK(h); assay type: biochemical; details: 40 min; read-out: percentage of enzyme activity that remains
T6 construct: purchased Upstate (KinaseProfiler service)

[12] = molecular target: RIPK2(h) (Homo sapiens, UniProt O43353); assay: Upstate kinase activity inhibition assay RIPK2(h); details: 40 min, read-out: percentage of enzyme activity that remains
[13] = molecular target: T7, IRAK4(h) (Homo sapiens, UniProt Q9NWZ3); assay: Upstate kinase activity inhibition assay IRAK4(h); assay type: biochemical; details: 4 μM Compound E
T7 construct: purchased Upstate (KinaseProfiler service)

[14] = molecular target: IKKβ(h) (Homo sapiens, UniProt O14920); assay: Upstate kinase activity inhibition assay IKKβ(h); details: 40 min, read-out: percentage of enzyme activity that remains
[15] = molecular target: T8, MAPK2(h) (Homo sapiens, UniProt P28482); assay: Upstate kinase activity inhibition assay MAPK2(h); assay type: biochemical; details: 40 min; read-out: percentage of enzyme activity that remains
T8 construct: purchased Upstate (KinaseProfiler service)

[16] = molecular target: T9, PKCβI(h) (Homo sapiens, UniProt P05771); assay: Upstate kinase activity inhibition assay PKCβI(h); assay type: biochemical; details: 40 min; read-out: percentage of enzyme activity that remains
T9 construct: purchased Upstate (KinaseProfiler service)

[17] = molecular target: T10, PDK1(h) (Homo sapiens, UniProt O15530); assay: Upstate kinase activity inhibition assay PDK1(h); assay type: biochemical; details: 40 min; read-out: percentage of enzyme activity that remains
T10 construct: purchased Upstate (KinaseProfiler service)

[18] = molecular target: JAK3(h) (Homo sapiens, UniProt P52333); assay: Upstate kinase activity inhibition assay JAK3(h); details: 40 min, read-out: percentage of enzyme activity that remains
[19] = molecular target: T11, Rsk1(h) (Homo sapiens, UniProt Q15418); assay: Upstate kinase activity inhibition assay Rsk1(h); assay type: biochemical; details: 40 min; read-out: percentage of enzyme activity that remains
T11 construct: purchased Upstate (KinaseProfiler service)

[20] = molecular target: PDGFRα(h) (Homo sapiens, UniProt P16234); assay: Upstate kinase activity inhibition assay PDGFRα(h); details: 40 min, read-out: percentage of enzyme activity that remains
[21] = molecular target: PKA(h) (Homo sapiens, UniProt P17612); assay: Upstate kinase activity inhibition assay PKA(h); assay type: biochemical; details: 40 min; read-out: percentage of enzyme activity that remains
[22] = molecular target: DAPK1(h) (Homo sapiens, UniProt P53355); assay: Upstate kinase activity inhibition assay DAPK1(h); details: 40 min, read-out: percentage of enzyme activity that remains
[23] = molecular target: NEK11(h) (Homo sapiens, UniProt Q8NG66); assay: Upstate kinase activity inhibition assay NEK11(h); details: 40 min, read-out: percentage of enzyme activity that remains
Sequence of NEK11(h) (Q8NG66 whole entry): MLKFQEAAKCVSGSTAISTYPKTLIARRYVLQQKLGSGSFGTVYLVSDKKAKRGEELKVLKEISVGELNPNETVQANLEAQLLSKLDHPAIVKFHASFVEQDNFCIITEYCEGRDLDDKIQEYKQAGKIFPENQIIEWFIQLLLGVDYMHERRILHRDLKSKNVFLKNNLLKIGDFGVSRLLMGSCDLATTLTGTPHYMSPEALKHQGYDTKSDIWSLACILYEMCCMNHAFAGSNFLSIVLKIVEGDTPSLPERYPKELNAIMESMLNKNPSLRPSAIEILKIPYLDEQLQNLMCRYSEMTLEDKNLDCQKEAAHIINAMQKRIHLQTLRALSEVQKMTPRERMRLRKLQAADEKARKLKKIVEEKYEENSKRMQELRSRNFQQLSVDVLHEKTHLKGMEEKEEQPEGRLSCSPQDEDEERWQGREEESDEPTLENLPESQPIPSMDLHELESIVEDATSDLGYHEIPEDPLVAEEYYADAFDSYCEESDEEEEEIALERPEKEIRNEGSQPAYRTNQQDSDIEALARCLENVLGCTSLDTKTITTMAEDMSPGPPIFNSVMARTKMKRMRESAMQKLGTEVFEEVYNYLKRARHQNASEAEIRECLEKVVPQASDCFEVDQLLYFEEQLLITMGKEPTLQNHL

[24] = molecular target: ZIPK(h) (Homo sapiens, UniProt O43293); assay: Upstate kinase activity inhibition assay ZIPK(h); details: 40 min, read-out: percentage of enzyme activity that remains
[25] = molecular target: SGK3(h) (Homo sapiens, UniProt Q96BR1); assay: Upstate kinase activity inhibition assay SGK3(h); details: 40 min, read-out: percentage of enzyme activity that remains
Sequence of SGK3(h) (Q96BR1 whole entry): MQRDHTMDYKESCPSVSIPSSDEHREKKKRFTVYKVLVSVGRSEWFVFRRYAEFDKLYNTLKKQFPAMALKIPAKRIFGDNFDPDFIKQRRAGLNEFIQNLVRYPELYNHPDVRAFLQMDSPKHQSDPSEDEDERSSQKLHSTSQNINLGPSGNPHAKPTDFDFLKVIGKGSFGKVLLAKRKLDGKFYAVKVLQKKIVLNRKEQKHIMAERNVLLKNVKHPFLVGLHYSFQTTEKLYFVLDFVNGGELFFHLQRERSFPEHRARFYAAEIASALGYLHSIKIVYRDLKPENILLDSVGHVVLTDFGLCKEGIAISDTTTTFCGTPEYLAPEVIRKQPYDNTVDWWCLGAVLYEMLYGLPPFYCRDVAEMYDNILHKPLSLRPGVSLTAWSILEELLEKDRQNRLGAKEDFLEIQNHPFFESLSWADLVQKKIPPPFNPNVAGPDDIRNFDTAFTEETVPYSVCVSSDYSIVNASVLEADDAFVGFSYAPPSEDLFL

[26] = molecular target: T12, PKCη(h) (Homo sapiens, UniProt P24723); assay: Upstate kinase activity inhibition assay PKCη(h); assay type: biochemical; details: 40 min; read-out: percentage of enzyme activity that remains
T12 construct: purchased Upstate (KinaseProfiler service)

[27] = molecular target: NEK3(h) (Homo sapiens, UniProt P51956); assay: Upstate kinase activity inhibition assay NEK3(h); details: 40 min, read-out: percentage of enzyme activity that remains
Sequence of NEK3(h) (P51956 whole entry): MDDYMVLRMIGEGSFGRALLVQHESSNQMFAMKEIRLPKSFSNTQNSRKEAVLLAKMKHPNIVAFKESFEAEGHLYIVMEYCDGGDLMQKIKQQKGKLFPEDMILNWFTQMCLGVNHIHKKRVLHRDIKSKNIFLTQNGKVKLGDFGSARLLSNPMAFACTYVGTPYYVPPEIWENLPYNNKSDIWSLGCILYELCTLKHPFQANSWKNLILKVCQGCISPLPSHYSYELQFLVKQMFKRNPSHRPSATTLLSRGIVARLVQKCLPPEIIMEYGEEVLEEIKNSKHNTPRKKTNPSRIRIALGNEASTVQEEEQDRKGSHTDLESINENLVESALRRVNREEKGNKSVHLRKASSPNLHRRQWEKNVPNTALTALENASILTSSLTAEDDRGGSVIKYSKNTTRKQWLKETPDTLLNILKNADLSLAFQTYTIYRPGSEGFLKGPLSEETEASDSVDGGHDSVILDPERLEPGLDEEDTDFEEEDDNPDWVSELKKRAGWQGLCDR

[28] = molecular target: T13, MINK(h) (Homo sapiens, UniProt Q8N4C8); assay: Upstate kinase activity inhibition assay MINK(h); assay type: biochemical; details: 40 min; read-out: percentage of enzyme activity that remains
T13 construct: purchased Upstate (KinaseProfiler service)

[29] = molecular target: EphB3(h) (Homo sapiens, UniProt P54753); assay: Upstate kinase activity inhibition assay EphB3(h); details: 40 min, read-out: percentage of enzyme activity that remains
[30] = molecular target: T14, CDK6/cyclinD3(h) (Homo sapiens, UniProt Q00534); assay: Upstate kinase activity inhibition assay CDK6/cyclinD3(h); assay type: biochemical; details: 40 min; read-out: percentage of enzyme activity that remains
T14 construct: purchased Upstate (KinaseProfiler service)
T14 sequence (Q00534 whole entry): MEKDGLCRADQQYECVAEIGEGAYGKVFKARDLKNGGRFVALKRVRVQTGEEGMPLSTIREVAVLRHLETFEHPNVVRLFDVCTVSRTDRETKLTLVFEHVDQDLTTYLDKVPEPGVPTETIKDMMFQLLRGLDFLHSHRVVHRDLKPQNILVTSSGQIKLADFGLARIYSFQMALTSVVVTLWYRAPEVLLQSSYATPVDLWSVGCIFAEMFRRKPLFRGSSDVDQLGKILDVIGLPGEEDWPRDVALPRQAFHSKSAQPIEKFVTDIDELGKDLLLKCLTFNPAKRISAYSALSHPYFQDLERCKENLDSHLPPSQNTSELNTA
T14 sequence (P30281 whole entry partner): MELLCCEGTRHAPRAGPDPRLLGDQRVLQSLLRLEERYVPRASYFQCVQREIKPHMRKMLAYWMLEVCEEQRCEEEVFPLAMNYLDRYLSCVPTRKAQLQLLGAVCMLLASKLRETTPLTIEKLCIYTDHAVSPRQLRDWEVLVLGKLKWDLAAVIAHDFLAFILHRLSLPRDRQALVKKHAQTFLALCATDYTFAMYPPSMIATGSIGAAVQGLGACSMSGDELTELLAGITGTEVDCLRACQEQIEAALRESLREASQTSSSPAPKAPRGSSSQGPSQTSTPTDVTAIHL

[31] = molecular target: EphA4(h) (Homo sapiens, UniProt P54764); assay: Upstate kinase activity inhibition assay EphA4(h); details: 40 min, read-out: percentage of enzyme activity that remains
Sequence of EphA4(h) (P54764 20-986): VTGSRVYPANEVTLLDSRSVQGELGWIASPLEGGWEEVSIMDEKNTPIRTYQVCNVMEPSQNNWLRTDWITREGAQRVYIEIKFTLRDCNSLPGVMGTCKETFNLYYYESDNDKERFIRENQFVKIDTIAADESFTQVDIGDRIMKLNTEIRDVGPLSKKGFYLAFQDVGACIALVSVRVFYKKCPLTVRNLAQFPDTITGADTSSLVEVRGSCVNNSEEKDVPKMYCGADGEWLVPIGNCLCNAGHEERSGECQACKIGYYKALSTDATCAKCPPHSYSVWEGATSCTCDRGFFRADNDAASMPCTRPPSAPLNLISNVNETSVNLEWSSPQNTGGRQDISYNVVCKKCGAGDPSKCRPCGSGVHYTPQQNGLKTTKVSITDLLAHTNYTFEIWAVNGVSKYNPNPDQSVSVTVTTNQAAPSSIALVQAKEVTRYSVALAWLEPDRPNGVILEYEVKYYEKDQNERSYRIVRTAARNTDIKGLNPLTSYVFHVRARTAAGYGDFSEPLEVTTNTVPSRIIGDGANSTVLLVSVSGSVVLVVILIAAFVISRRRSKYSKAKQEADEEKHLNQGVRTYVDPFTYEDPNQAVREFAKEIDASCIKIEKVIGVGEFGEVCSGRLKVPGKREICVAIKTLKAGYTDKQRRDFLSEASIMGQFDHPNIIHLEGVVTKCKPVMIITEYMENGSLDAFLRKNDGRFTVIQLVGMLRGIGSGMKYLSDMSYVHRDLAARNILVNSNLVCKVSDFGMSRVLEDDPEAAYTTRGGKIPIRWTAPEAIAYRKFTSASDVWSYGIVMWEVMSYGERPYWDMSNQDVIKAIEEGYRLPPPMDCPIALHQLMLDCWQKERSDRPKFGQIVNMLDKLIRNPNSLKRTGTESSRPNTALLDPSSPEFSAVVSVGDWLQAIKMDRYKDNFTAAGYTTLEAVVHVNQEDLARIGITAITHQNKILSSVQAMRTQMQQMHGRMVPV

T1 sequence (Q96PF2 whole entry): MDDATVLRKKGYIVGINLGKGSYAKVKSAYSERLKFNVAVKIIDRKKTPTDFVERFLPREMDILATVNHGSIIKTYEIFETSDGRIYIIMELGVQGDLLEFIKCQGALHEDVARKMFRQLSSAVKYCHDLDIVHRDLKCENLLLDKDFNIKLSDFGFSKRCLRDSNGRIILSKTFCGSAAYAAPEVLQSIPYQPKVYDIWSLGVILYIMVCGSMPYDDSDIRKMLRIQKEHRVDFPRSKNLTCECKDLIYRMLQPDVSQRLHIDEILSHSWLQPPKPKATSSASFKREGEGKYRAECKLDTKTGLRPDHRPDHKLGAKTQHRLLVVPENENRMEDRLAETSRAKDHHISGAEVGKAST

Structure (SMILES): Cc1cc(Nc2cc(N3CCN(C)CC3)nc(Sc3ccc(NC(=O)C4CC4)cc3)n2)n[nH]1 [Compound E, Cyclopropane carboxylic acid {4-[4-(4-methyl-piperazin-1-yl)-6-(5-methyl-2H-pyrazol-3-ylamino)-pyrimidin-2-ylsulphanyl]-phenyl}-amide]
- remaining activity at 0.2 µM [1]: 0%
- remaining activity at 4 µM [1]: 0%
- remaining activity at 0.2 µM [2]: 112%
- remaining activity at 4 µM [2]: 109%
- remaining activity at 0.2 µM [3]: 87%
- remaining activity at 4 µM [3]: 29%
- percentage of enzyme activity that remains ([4]; 0.2 μM Compound E): 99%
- percentage of enzyme activity that remains ([4]; 4 μM Compound E): 103%
- remaining activity at 0.2 µM [5]: 93%
- remaining activity at 4 µM [5]: 27%
- percentage of enzyme activity that remains ([6]; 0.2 μM Compound E): 53%
- percentage of enzyme activity that remains ([6]; 4 μM Compound E): 11%
- remaining activity at 0.2 µM [7]: 102%
- remaining activity at 4 µM [7]: 96%
- remaining activity at 4 µM [8]: 92%
- percentage of enzyme activity that remains [9]: 125%
- remaining activity at 0.2 µM [10]: 96%
- remaining activity at 4 µM [10]: 82%
- remaining activity at 0.2 µM [11]: 98%
- remaining activity at 0.2 µM [12]: 107%
- remaining activity at 4 µM [12]: 105%
- percentage of enzyme activity that remains [13]: 90%
- remaining activity at 0.2 µM [14]: 106%
- remaining activity at 4 µM [14]: 117%
- remaining activity at 0.2 µM [15]: 92%
- remaining activity at 0.2 µM [16]: 100%
- remaining activity at 4 µM [16]: 98%
- remaining activity at 0.2 µM [17]: 97%
- remaining activity at 4 µM [17]: 86%
- remaining activity at 0.2 µM [18]: 107%
- remaining activity at 4 µM [18]: 105%
- remaining activity at 4 µM [19]: 89%
- remaining activity at 0.2 µM [20]: 87%
- remaining activity at 0.2 µM [21]: 100%
- remaining activity at 4 µM [21]: 102%
- remaining activity at 0.2 µM [22]: 107%
- remaining activity at 4 µM [22]: 100%
- remaining activity at 0.2 µM [23]: 106%
- remaining activity at 4 µM [23]: 106%
- remaining activity at 0.2 µM [24]: 100%
- remaining activity at 0.2 µM [25]: 103%
- remaining activity at 4 µM [25]: 87%
- remaining activity at 0.2 µM [26]: 98%
- remaining activity at 4 µM [26]: 100%
- remaining activity at 0.2 µM [27]: 102%
- remaining activity at 4 µM [27]: 125%
- remaining activity at 0.2 µM [28]: 103%
- remaining activity at 4 µM [28]: 82%
- remaining activity at 0.2 µM [29]: 99%
- remaining activity at 4 µM [29]: 89%
- remaining activity at 0.2 µM [30]: 103%
- remaining activity at 4 µM [30]: 97%
- remaining activity at 0.2 µM [31]: 103%
- remaining activity at 4 µM [31]: 61%
